Source: patent publication US10105384B2, “Nucleic acids targeting TCTP for use in the treatment of chemo- or hormone-resistant cancers” (INSTITUT NATIONAL DE LA SANTE ET DE LA RECHERCHE MEDICALE …, priority 2010, dated 2018)

Assays:
TCTP = assay: ASO sequences screening: TCTP expression by western blot and/or qRT-PCR; type: cell-based, human; settings: WB and/or qRT-PCR, PC-3 cells overexpressing TCTP
Method: Western Blot analysis was performed as described previously (Rocchi et al., 2004, Cancer Res. 64:6595-602) with 1:5000 rabbit anti-Hsp27 polyclonal antibody (Assay Designs, Villeurbanne, France), 1:2000 rabbit TCTP polyclonal antibody (Abcam Inc., Cambridge, UK), 1:250 rabbit anti-MSL1v1 polyclonal antibody (Abcam Inc.), 1:500 mouse anti-ubiquitin monoclonal antibody (Santa Cruz Biotechnology Inc., Heidelberg, Germany) or 1:1000 rabbit anti-caspase-3 polyclonal antibody (Cell Signalling Technology Inc., Danvers, USA). Loading levels were normalized using 1:5000 rabbit anti-glyceraldehyde-3-phosphate dehydrogenase polyclonal (Abcam Inc.) or 1:2500 mouse anti-vinculine monoclonal antibodies (Sigma Chemical Co., St Louis, Mo., USA).
The quantitative reverse transcription polymerase chain reaction (qRT-PCR) analysis was done on a LightCycler detection system (Roche Applied Science, Meylan, France). Expression levels of 18S subunit of the ribosome gene were used as an internal control. First strand cDNA was synthesized from 1 μg of total RNA using random hexamers and expanded by reverse transcriptase according to the manufacturer's instructions (ImProm-II Reverse Transcription System, Promega, Charbonniéres-les-Bains, France), subsequently diluted 1:10 with water, and stored at −20° C. until use. TCTP and 18S polymerase chain reaction (PCR) products were detected by quantitative real time PCR (qRT-PCR) using the SYBR Premix Ex Taq (Takara Bio Inc, St Germain en Laye, France) following the manufacturer's instructions. Five microliters of diluted cDNA template were mixed with 10 μl SYBR Premix Ex Taq (including Taq polymerase, reaction buffer, MgCl2, SYBR green I dye, and deoxynucleotide triphosphate mix) and 0.4 μM forward and reverse primers, in a final volume of 20 μl. The following primers were used: TCTP forward 5′-[…]-3′ (SEQ ID NO: 8) and TCTP reverse 5′-[…]-3′; (SEQ ID NO: 9); 18S forward 5′-[…]-3′ (SEQ ID NO: 10) and 18S reverse 5′-[…]-3′ (SEQ ID NO: 11). After an initial Taq activation for 10 seconds at 95° C., Light Cycler PCR was done using 55 cycles with the following cycling conditions: 95° C. for 5 seconds, 58° C. for 7 seconds, and 72° C. for 14 seconds. Each sample was analyzed in duplicate and the experiment was repeated three times. Results were analyzed using RealQuant data analysis software (Roche, Neuilly-sur-seine, France). The results analysis was done with the 2(-Delta Delta C(T)) Method (Livak K J. et al., 2001; Methods. 25:402-8).
In order to find a sequence ASO having an inhibiting effect on TCTP expression, 30 ASO sequences have been designed 26 of which are shown in table 1. Said 30 sequences cover the TCTP mRNA (accession number NM_003295). Using BLAST program, the specificity of said sequences has been studied. Among said 30 sequences, only 15 sequences have been identified as being specific for TCPT mRNA sequence (see table 1). The effect of said ASO sequences on TCTP expression was tested by western blot analysis (WB) and/or by quantitative reverse transcription polymerase chain reaction (qRT-PCR) on PC-3 cells overexpressing TCTP. WB and qRT-PCR were performed as exposed in example 1.

LNCaP tumors = assay: LNCaP tumor growth in vivo after castration in athymic nude mice
Method: Approximately 3.10^6 PC-3 cells and 10.10^6 LNCaP cells were inoculated subcutaneously with 0.1 mL of Dulbecco's Modified Eagle's Medium (Invitrogen) supplemented with 10% FCS for PC-3 or with 0.1 mL of Matrigel (BD Biosciences Discovery Labware) for LNCaP in the flank region of 4-week-old male athymic nude mice (Charles River, L'Arbresle, France) via a 23-gauge needle. When PC-3 tumors reached 50 mm^3, usually 3 to 4 weeks after injection, mice were randomly selected for treatment with TCTP ASO alone, scrambled ASO alone, TCTP ASO plus docetaxel or scrambled ASO plus docetaxel. Mice bearing LNCaP tumors between 200 and 300 mm^3 in volume were castrated via scrotal approach and randomly assigned to a treatment arm. Mice were treated beginning 1 week after castration with TCTP ASO or control ASO alone and serum PSA measurements were done weekly. For both experiments, each experimental group consisted in 10 mice and the tumor volume measurements were performed once weekly and calculated by the formula length×width×depth×0.5236 (Gleave et al., 1999, Clin Cancer Res 5:2891-8). After randomization, 10 mg/kg TCTP or scrambled ASO was injected intraperitoneally (i.p) once daily for 60 days for ASO monotherapy groups and 90 days for the ASO plus docetaxel groups. A total of 35 mg/kg docetaxel was administrated i.p. three times per week from days 7 to 14. Tumor volume measurements were performed once weekly and calculated by the formula length×width×depth×0.5236 (20). Data points were expressed as average tumor volume levels +/−standard error (SE). All animal procedures were performed in accordance with protocols approved by French laws and the European directives and with appropriate institutional certification.
Twenty male mice bearing LNCaP tumors were castrated 6 to 8 weeks after tumor implantation and were randomly selected for treatment with TCTP ASO of SEQ ID NO: 2 versus control ASO. Castration was done when tumors reached a mean of 200 mm3. Mean tumor volume and PSA were similar in both groups at the beginning of the treatment. Beginning 1 week after castration, 10 mg/kg of ASO was administered once daily by i.p. injection for 9 weeks. […] At sacrifice, tumor volume was 4-fold higher in control (1650, 15±281, 76 mm^3) compared with the TCTP ASO-treated group (397, 79±132, 61 mm^3; *, P≤0.05).

Which results are given for “5′-ACCAATGAGCGAGTCATCAA-3′ (phosphorothioate backbone, further chemistry not given here) [ASO10]”?
ability to inhibit TCTP expression (TCTP): strong ability to inhibit TCTP expression; best ability to inhibit specifically TCTP expression (TCTP): best ability to inhibit specifically TCTP expression; LNCaP tumor volume increase compared with control ASO (LNCaP tumors; 9 weeks after castration): increased more slowly; harvested tumors smaller in appearance (LNCaP tumors; after 9 weeks of TCTP ASO monotherapy): ¾; tumor volume in control compared with the TCTP ASO-treated group (LNCaP tumors; at sacrifice): 4 fold; side effects (animal behavior, body weight) (LNCaP tumors; castrated mice bearing LNCaP tumors, 9 weeks): No side effects
